Converted amounts (≈) assume the structure as drawn.
What was measured:
adult female houseflies = assay: whole plant or invertebrate; conditions: Musca domestica, topical, 24 h, read-out: Houseflies LD50
Description: Toxicity of the compounds of the present invention to houseflies was tested using the technique described by March and Metcalf (Bull. Calif. State Dept. Agr. 38, No. 2, 93-101 [1949]): Solutions of test compounds in acetone were prepared at a range of concentrations. Adult female houseflies (Muscadomesticus) were treated with one drop of acetone solution, applied to the prothorax, using a syringe calibrated to deliver 1.00 ± 0.05 mm^3 drops. Twenty flies were treated at each dosage, each test compound was applied at 8 to 10 dosage levels. Each test was replicated three times. […] A one-inch square of cotton saturated with 40% sugar solution was provided for food in each carton. The cartons of flies were held in a constant temperature chamber at 60° F and 60% relative humidity for 24 hours before mortality counts were made. Flies totally unable to make crawling or walking movements were counted as dead. LD50 values were calculated in the conventional manner.

[1] = tested on: larvae of Culex fatigans (mosquitoes); assay: Toxicity to mosquitoes, fourth-instar larvae; conditions: Culex quinquefasciatus, 24 h, read-out: Mosquitoes LC50
Description: Toxicity of the compounds of the present invention to mosquitoes was tested using the technique described by Mulla, Metcalf and Geib (Mosquito News 28, No. 2, 236 [ 1966]): A 1% (w/v) stock solution was prepared by dissolving the test compound in acetone. The appropriate amount of stock solution was added with stirring to 100 ml of tap water and 20-25 fourth-instar larvae of Culex fatigans were placed in the solution. After 24 hours, the counts were taken. Larvae not able to rise to the surface on touch were counted as dead. Each concentration was run in duplicate and each material was run on two or three different days. The average percent mortality was plotted against the logarithm of the concentration (in ppm) and the LC50 value determined by inspection.

[2] = Acute oral toxicity to mice; conditions: mouse, in vivo
Description: Acute oral toxicity of the compounds of the present invention to mice was determined after the manner of Hollingworth, Fukuto and Metcalf (J. Agr. Food Chem. 15, 235 [ 1967]): Solutions of the compounds at each of a series of concentrations were prepared in olive oil or propylene glycol as solubility required. A dose of 0.25 ml of each solution was administered to each of four female white Swiss mice using the "bolus"-tipped syringe. […] Final mortality determinations were made 48 hours after treatment.

Mexican bean beetle [3] = assay: Initial contact activity, Mexican bean beetle; assay type: in vivo; conditions: Epilachna varivestis, 48 hours exposure, read-out: % Kill, Mexican bean beetle, Initial
Description: (§1) Initial Contact Activity: One-half gram of test compound was dissolved in 40 ml of acetone and this solution was dispersed in 360 ml of water containing one drop of isooctylphenyl polyethoxyethanol. An aliquot of this solution was diluted with water to provide a solution containing 1250 ppm of active ingredient. […] At this time, the dead and living insects (or mites) were counted and the percent kill was calculated.

southern army worm [4] = assay: Initial contact activity, southern army worm; assay type: in vivo, Prodenia eridania; conditions: 1250 ppm, 48 hours exposure
Description: as §1

pea aphid [5] = assay: Initial contact activity, pea aphid; assay type: in vivo, Macrosiphum pisi; conditions: Acyrthosiphon pisum, 48 hours exposure, read-out: % Kill, pea aphid, Initial
Description: as §1

two-spotted spider mite [6] = assay: Initial contact activity, two-spotted spider mite; assay type: in vivo; conditions: Tetranychus urticae, 48 hours exposure, read-out: % Kill, two-spotted spider mite, Initial
Description: as §1

milkweed bug [7] = assay: Initial contact activity, milkweed bug; assay type: in vivo, Oncopeltus fascinatus; conditions: Oncopeltus fasciatus, 48 hours exposure, read-out: % Kill, milkweed bug, Initial
Description: as §1

plum curculio [8] = assay: Initial contact activity, plum curculio; assay type: in vivo; conditions: Conotrachelus nenuphar, 48 hours exposure, read-out: % Kill, plum curculio, Initial
Description: as §1

granary weevil [9] = assay: Initial contact activity, granary weevil; assay type: in vivo; conditions: Sitophilus granarius, 48 hours exposure, read-out: % Kill, granary weevil, Initial
Description: as §1

confused flour beetle [10] = assay: Initial contact activity, confused flour beetle; assay type: in vivo; conditions: Tribolium confusum, 48 hours exposure, read-out: % Kill, confused flour beetle, Initial
Description: as §1

Mexican bean beetle [11] = assay: Residual contact activity (7-day), Mexican bean beetle; assay type: in vivo; conditions: Epilachna varivestis, 48 h, surface aged seven days, read-out: % Kill, Mexican bean beetle, Residual (7-day)
Description: as §1
(§2) Residual Contact Activity: The residual contact activity of the compounds was determined on the same organisms using the technique described above, except that in each case the treated surface was allowed to dry and was exposed to normal light and air for seven days before introduction of the mites or insects. […]

southern army worm [12] = assay: Residual contact activity (7-day), southern army worm; assay type: in vivo, Prodenia eridania; conditions: 1250 ppm, surface aged seven days; 2880 min
Description: as §1, §2

pea aphid [13] = assay: Residual contact activity (7-day), pea aphid; assay type: in vivo, Macrosiphum pisi; conditions: Acyrthosiphon pisum, 48 h, surface aged seven days, read-out: % Kill, pea aphid, Residual (7-day)
Description: as §1, §2

two-spotted spider mite [14] = assay: Residual contact activity (7-day), two-spotted spider mite; assay type: in vivo; conditions: Tetranychus urticae, 48 h, surface aged seven days, read-out: % Kill, two-spotted spider mite, Residual (7-day)
Description: as §1, §2

milkweed bug [15] = assay: Residual contact activity (7-day), milkweed bug; assay type: in vivo, Oncopeltus fascinatus; conditions: Oncopeltus fasciatus, 48 h, surface aged seven days, read-out: % Kill, milkweed bug, Residual (7-day)
Description: as §1, §2

plum curculio [16] = assay: Residual contact activity (7-day), plum curculio; assay type: in vivo; conditions: Conotrachelus nenuphar, 48 h, surface aged seven days, read-out: % Kill, plum curculio, Residual (7-day)
Description: as §1, §2

granary weevil [17] = assay: Residual contact activity (7-day), granary weevil; assay type: in vivo; conditions: Sitophilus granarius, 48 h, surface aged seven days, read-out: % Kill, granary weevil, Residual (7-day)
Description: as §1, §2

confused flour beetle [18] = assay: Residual contact activity (7-day), confused flour beetle; assay type: in vivo; conditions: Tribolium confusum, 48 h, surface aged seven days, read-out: % Kill, confused flour beetle, Residual (7-day)
Description: as §1, §2

Mexican bean beetle [19] = assay: Systemic insecticidal activity, soil-watering technique, Mexican bean beetle; assay type: in vivo; conditions: Epilachna varivestis, 48 h, 25 ml to soil, infested after 3 days, counted 2 days later, read-out: % Kill, Mexican bean beetle, systemic
southern army worm [20] = assay: Systemic insecticidal activity, soil-watering technique, southern army worm; assay type: in vivo, Prodenia eridania; conditions: 156 ppm, 25 ml to soil, infested after 3 days, counted 2 days later
pea aphid [21] = assay: Systemic insecticidal activity, soil-watering technique, pea aphid; assay type: in vivo, Macrosiphum pisi; conditions: Acyrthosiphon pisum, 48 h, 25 ml to soil, infested after 3 days, counted 2 days later, read-out: % Kill, pea aphid, systemic
two-spotted spider mite [22] = assay: Systemic insecticidal activity, soil-watering technique, two-spotted spider mite; assay type: in vivo; conditions: Tetranychus urticae, 48 h, 25 ml to soil, infested after 3 days, counted 2 days later, read-out: % Kill, two-spotted spider mite, systemic

Compound | LD50 (adult female houseflies) [mg/kg] | LC50 [1] [µg/mL] | LD50 at 48 h [2] [mg/kg] | mortality at 1250 ppm (Mexican bean beetle [3]) [%] | % Kill, southern army worm, Initial (southern army worm [4]) [%] | mortality at 1250 ppm (pea aphid [5]) [%] | mortality at 1250 ppm (two-spotted spider mite [6]) [%] | mortality at 1250 ppm (milkweed bug [7]) [%] | mortality at 1250 ppm (plum curculio [8]) [%] | mortality at 1250 ppm (granary weevil [9]) [%] | mortality at 1250 ppm (confused flour beetle [10]) [%] | mortality at 1250 ppm (Mexican bean beetle [11]) [%] | % Kill, southern army worm, Residual (7-day) (southern army worm [12]) [%] | mortality at 1250 ppm (pea aphid [13]) [%] | mortality at 1250 ppm (two-spotted spider mite [14]) [%] | mortality at 1250 ppm (milkweed bug [15]) [%] | mortality at 1250 ppm (plum curculio [16]) [%] | mortality at 1250 ppm (granary weevil [17]) [%] | mortality at 1250 ppm (confused flour beetle [18]) [%] | mortality at 156 ppm (Mexican bean beetle [19]) [%] | other results
CNC(=O)Oc1cccc2c1OC(C)(C)C2 [Carbofuran, 2,3-dihydro-2,2-dimethyl-7-benzofuranyl methylcarbamate] | ~6.7 | 0.052 (≈ 0.235 µM) | ~2 |  |  |  |  |  |  |  |  |  |  |  |  |  |  |  |  |  | 
CN(C)SN(C)C(=O)Oc1cccc2c1OC(C)(C)C2 [I, 2,3-Dihydro-2,2-dimethyl-7-benzofuranyl (Dimethylaminosulfenyl) (methyl)carbamate] | ~15 | 0.027 (≈ 0.0911 µM) | 10 to 20 | 100 | 100 | 100 | 100 | 100 | 100 | 100 | 100 | 95 | 80 | 95 | 3 | 100 | 5 | 63 | 0 | 100 | % Kill, southern army worm, systemic (southern army worm [20]): 100%; mortality at 156 ppm (pea aphid [21]): 100%; mortality at 156 ppm (two-spotted spider mite [22]): 73%
CN(SN1CCOCC1)C(=O)Oc1cccc2c1OC(C)(C)C2 [II, 2,3-Dihydro-2,2-dimethyl-7-benzofuranyl (Methyl)(morpholinosulfenyl)carbamate] | ~10.5 | 0.048 (≈ 0.142 µM) | 10 to 20 | 100 | 100 | 100 | 97 | 100 | 100 | 100 | 100 | 100 | 83 | 100 | 4 | 100 | 100 | 100 | 0 | 100 | % Kill, southern army worm, systemic (southern army worm [20]): 100%; mortality at 156 ppm (pea aphid [21]): 100%; mortality at 156 ppm (two-spotted spider mite [22]): 76%
